In patent publication US11446287B2, “Compounds and methods for EP300 or CBP modulation and indications therefor” (Opna Immuno-Oncology SA, priority 2019, dated 2022) one finds IC50 data, which are given here for nine compounds.

The target of the assay is T1, Recombinant human EP300 containing the bromodomain (EP300-BD (1040-1161)) (Homo sapiens, UniProt Q09472).
T1 construct: Recombinant human EP300 bromodomain (EP300-BD (1040-1161)); made in house; host or cells: E. coli BL21-CodonPlus (DE3), modified pET vector
T1 sequence (Q09472 1040-1161): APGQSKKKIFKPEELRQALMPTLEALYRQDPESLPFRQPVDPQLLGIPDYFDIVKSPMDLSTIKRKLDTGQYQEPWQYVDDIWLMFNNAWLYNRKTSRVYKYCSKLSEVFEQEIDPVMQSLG
Briefly: EP300 Alphascreen binding assay. The procedure, abridged:
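Displacement of a biotinylated acetyl-K56 histone H3 peptide from the N-His bromodomain construct (1040-1161) measured by AlphaScreen proximity, beads at 7.5 μg/ml final, read 60 min after addition. Protein, peptide and compound first incubated 1 h at room temperature, pH 7.5 HEPES buffer; IC50 by four-parameter logistic fit.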

For the compound `Cc1noc(C)c1-c1cnc2c(C(=O)c3cccc(Cl)c3)cn(-c3ccnc(C(=O)O)c3)c2c1` [P-0088, 4-(3-(3-chlorobenzoyl)-6-(3,5-dimethylisoxazol-4-yl)-1H-pyrrolo[3,2-b]pyridin-1-yl)picolinic acid], the IC50 was in the range of 0.0001 to 1 µM.

As to `Cc1noc(C)c1-c1cnc2c(C(=O)c3ccccc3Cl)cn(-c3ccnc(C(=O)O)c3)c2c1` [P-0089, 4-(3-(2-chlorobenzoyl)-6-(3,5-dimethylisoxazol-4-yl)-1H-pyrrolo[3,2-b]pyridin-1-yl)picolinic acid], the IC50 was in the range of 0.0001 to 1 µM.

Take `Cc1noc(C)c1-c1cnc2c(Cc3cccc(Cl)c3)cn(-c3ccnc(C(=O)O)c3)c2c1` [P-0090, 4-(3-(3-chlorobenzyl)-6-(3,5-dimethylisoxazol-4-yl)-1H-pyrrolo[3,2-b]pyridin-1-yl)picolinic acid]: the IC50 was 0.0001 to 1 µM.

Take `Cc1noc(C)c1-c1cnc2c(Cc3ccccc3Cl)cn(-c3ccnc(C(=O)O)c3)c2c1` [P-0091, 4-(3-(2-chlorobenzyl)-6-(3,5-dimethylisoxazol-4-yl)-1H-pyrrolo[3,2-b]pyridin-1-yl)picolinic acid]: the IC50 lay within 0.0001 to 1 µM.

As to `Cc1noc(C)c1-c1cnc2c(c1)c(-c1cccc(C(=O)NS(C)(=O)=O)c1)cn2Cc1ccccc1` [P-0092, 3-(1-benzyl-5-(3,5-dimethylisoxazol-4-yl)-1H-pyrrolo[2,3-b]pyridin-3-yl)-N-(methylsulfonyl)benzamide], the 50% inhibitory concentration (IC50) lay in the range of 0.0001 to 1 µM.

In the case of `Cc1noc(C)c1-c1cnc2c(c1)c(C1=CCC(C(=O)O)CC1)cn2Cc1ccccc1` (stereo not drawn) [P-0093, 4-(1-benzyl-5-(3,5-dimethylisoxazol-4-yl)-1H-pyrrolo[2,3-b]pyridin-3-yl)cyclohex-3-ene-1-carboxylic acid], the IC50 lay within 0.0001 to 1 µM.

As to `Cc1noc(C)c1-c1cnc2c(c1)c(-c1c(F)cc(C(=O)O)cc1F)cn2C(C)c1ccccn1` (stereo not drawn) [P-0094, 4-(5-(3,5-dimethylisoxazol-4-yl)-1-(1-(pyridin-2-yl)ethyl)-1H-pyrrolo[2,3-b]pyridin-3-yl)-3,5-difluorobenzoic acid], the half-maximal inhibitory concentration (IC50) lay within 0.0001 to 1 µM.

Turning to `Cc1noc(C)c1-c1cnc2c(c1)c(-c1c(Cl)cc(C(=O)O)cc1Cl)cn2C(C)c1ccccn1` (stereo not drawn) [P-0095, 3,5-dichloro-4-(5-(3,5-dimethylisoxazol-4-yl)-1-(1-(pyridin-2-yl)ethyl)-1H-pyrrolo[2,3-b]pyridin-3-yl)benzoic acid], the IC50 was in the range of 0.0001 to 1 µM.

Take `Cc1noc(C)c1-c1cnc2c(c1)c(-c1c(F)ccc(NS(C)(=O)=O)c1F)cn2C(C)c1ccccn1` (stereo not drawn) [P-0096, N-(3-(5-(3,5-dimethylisoxazol-4-yl)-1-(1-(pyridin-2-yl)ethyl)-1H-pyrrolo[2,3-b]pyridin-3-yl)-2,4-difluorophenyl)methanesulfonamide]: the IC50 was 0.0001 to 1 µM.

A word on the IC50: it is the concentration that gives 50% inhibition.
